According to paper PMC8955307, “Nucleobase-Derived Nitrones: Synthesis and Antioxidant and Neuroprotective Activities in an In Vitro Model of Ischemia–Reperfusion” (International Journal of Molecular Sciences, 2022):
Several values for one entry are separate records, joined by “and”; a condition that tells them apart may be missing. Equal entries are not always repeated. Where two headings read alike, the source gives them in different places.

Experiments:
[1] = test system: SH-SY5Y human neuroblastoma cells; assay: Neuroprotection: cell viability (XTT metabolic activity) after OGD (4 h) followed by OGR (24 h) (IR); assay type: cell-based; settings: OGD 4 h + OGR 24 h (IR); for Emax: 24 h, read-out: Maximal Activity mean±SEM (neuroprotection); for EC50: compounds 0.01 μM to 1 mM, read-out: Neuroprotection EC50 ± SEM
Protocol: Cultures of human neuroblastoma cells from line SH-SY5Y were performed in flasks containing Dulbecco’s: Ham’s F12, 1:1 [v/v] composed of 0.5 mM sodium pyruvate, 2.5 mM GlutaMAX™; GIBCO, Life Technologies, Madrid (Spain), 3.15 mg/mL glucose, 1% Antibiotic-Antimycotic (100 ui/mL penicillin, […] streptomycin, and 0.25 mg amphotericin B), 1% Gentamicin 15 mg/mL (Sigma-Aldrich, Madrid, Spain) and 10% Fetal Calf Serum (FCS) (Gibco; Life Technologies, Madrid, Spain) as as described. For each experiment, neuroblastoma cells were digested partially with 0.25% trypsin-EDTA and seeded in plates of 96 or 48 wells with a density of 0.5–1 or 2–2.5 × 10^5 cells/well, respectively, depending on the assay. At 80% confluence of the seeded cells, medium was renewed adding 0.1–1000 µM of the compounds tested.
(§1) To induce experimental ischemia, and the sub-consequent cellular damage, the neuroblastoma cultures underwent OGD for 3–4 h, maintained in a glucose-free Dulbecco’s medium inside an anaerobic chamber in the presence of a gas mixture of 95% N2/5% CO2 and humidified at 37 °C at a constant pressure of 0.15 bar. After the OGD period (4 h), medium was substituted by oxygenated 10% FCS-containing medium, and cells were incubated in conditions of normoxia for 24 h to recovery (R24h). The compounds used in the neuroprotection studies: nitrones 9a–i, α-phenyl-N-tert-butyl nitrone (PBN) and N-acetyl-L-cysteine (NAC) (0.01 μM−1000 µM), were added at the beginning of R24h as described. Concurrently, controls in the absence of the OGD procedure were performed by maintaining these cells with Dulbecco’s medium including glucose for 3–4 h in an incubator in conditions of normoxia during the OGD period; thereafter, the medium was changed, and the cells (in the presence or absence of the different study compounds) were returned to the incubator for 24 h of recovery, as described. In addition, experiments including the same amounts of vehicle (final concentration < 1% dimethyl sulfoxide) were performed, serving as controls. The effects of nitrones 9a–g were analyzed three-five times independently using different culture batches, and each experiment was carried out in triplicate.
Cell viability measurements were carried out in human neuroblastoma cells SHSY5Y using 96-well culture plates, containing about 0.5–1 × 10^5 cells/well, after the OGD-R24h or control treatment including 0.01–1000 µM of the different testing compounds (nitrones 9a–g, PBN, and NAC), utilizing the Cell Proliferation Kit II (XTT), Sigma Aldrich, Madrid, Spain, which determines the culture’s metabolic capacity, as described in [21, 22]. XTT solution (0.3 mg/mL final concentration) was added to the seeded cells, incubated for 2 h at 37 °C with 5% CO2 and 95% air (v/v), and a spectrophotometer reader (Biotek Power-Wave XS microplate-reader (BioTek Instruments, Madrid, Spain) was used to register the absorbance at 450 nm (reference 650 nm) of the soluble formazan product generated. 100% viability was set by control normoxic cells treated with medium only, and control cells were added 0.001–1% DMSO in every assay.

[2] = test system: SH-SY5Y human neuroblastoma cells; assay: Anti-necrotic effect: LDH release after OGD (4 h) and 24 h OGR (IR); assay type: cell-based; settings: OGD 4 h + 24 h OGR (IR); for IC50: compounds 0.1 μM to 1 mM, read-out: LDH Release Inhibition IC50 ±SEM; for Emax: read-out: Maximal Inhibition Mean±SEM (LDH release)
Protocol: as §1
Anti-necrotic cell activity was evaluated by culturing SHSY5Y cells in 48-well dishes, in a density of 2 × 10^5 cells/well and treating them as controls or under the OGD-R24h procedure, adding the testing compounds at 0.01–1000 µM (see point 4.2.2.). Media of every well were collected in Eppendorf tubes properly labelled and stored at −20 °C until measurement (samples would be needed to measure extracellular NADH). Afterwards, each well was recharged with a 0.1 M Phosphate Buffer with 0.5% Triton X-100, pH 7.5, in order to scratch the cells from the bottom of the well. After a 13.000 rpm centrifugation, the soluble fractions are collected and labelled (samples would be essential to measure intracellular NADH). Finally, LDH activity was quantified as the degree of absorbance declined at 340, indicating the oxidation of NADH to NAD+ as described. Results are expressed as the LDH activity of the extracellular medium referred to the total LDH activity after cell lysis.

[3] = test system: human neuroblastoma SH-SY5Y cells; assay: Superoxide radical production (DHE fluorescence) after OGD and 3 h OGR (IR); assay type: cell-based; settings: OGD + 3 h OGR (IR); for EC50: compounds 0.1 to 1000 μM, read-out: Antioxidant Activity EC50 ± SEM (superoxide production); for Emax: read-out: Maximal Activity mean±SEM (antioxidant)
Protocol: A density of 2–2.5 × 10^5 SHSY5Y cells/well was used to seed in 48-well plates to quantify superioxide anion formation. Firstly, cultured cells were exposed to OGD treatment for 3–4 h or maintained in normoxic conditions (controls). Thereafter, medium was replaced with oxygenated Dulbecco’s: Ham’s F12 medium with glucose, 1% Antibiotic-Antimycotic, 1% Gentamicin and 10% FCS. Cells were incubated in the absence (controls) or presence of indicated concentrations of the compounds of study, at 37 °C for 3 h. […] For every condition, the linear regression of fluorescence data (expressed in arbitrary fluorescence units, AFU) was calculated, and the slopes (a) of the best fitting lines (y = ax) were considered as an index of superoxide production, as described previously.

[4] = Hydroxyl radical scavenging (competition with DMSO); settings: tested at 100 µM
Protocol: The competition of the tested nitrones (100 µM) with DMSO (33 mM) in the phosphate buffer (50 mM), pH 7.4, was used. The hydroxyl radicals were generated by the Fe^3+/ascorbic acid system (EDTA 0.1 mM, Fe^3+ 167 µM, ascorbic acid 10 mM), and the samples were incubated at 37 °C/30 min. A 17% w/v solution of CCl3CO2H was used to stop the radical propagation. The percentage scavenging activity was compared to Trolox used as a reference.

[5] = ABTS radical cation decolorization assay; settings: tested at 100 µM
Protocol: Approximately 10 µL of the tested compounds in DMSO (100 µM final concentration) were mixed with 200 µL of ABTS∙^+ (100 mM) and 790 µL absolute ethanol. The absorbance value was recorded 1 min after mixing at 734 nm and compared to Trolox.

Row | SMILES | EC50 ([1]; Homo sapiens) [µM] | EC50 ([3]; Homo sapiens) [µM] | EC50 [1] | EC50 [3] [µM] | Emax ([1]; Homo sapiens) [%] | IC50 ([2]; Homo sapiens) [µM] | Emax ([2]; Homo sapiens) [%] | Emax ([3]; Homo sapiens) [%] | OH (%) scavenging [4] | ABTS+ (%) [5] [%] | Maximal Activity mean±SEM (neuroprotection) [1] | Maximal Inhibition Mean±SEM (LDH release) [2] | IC50 [2] | Maximal Activity mean±SEM (antioxidant) [3] [%]
1 | Cc1cn(C/C=[N+](/C)[O-])c(=O)[nH]c1=O [9b] | 193 ± 36.7 | 0.72 ± 0.16 | – | – | 123 ± 8.46 | 23.2 ± 2.64 | 122 ± 1.84 | 100 ± 2.26 | 73% | 14 | – | – | – | –
2 | C/[N+]([O-])=C/Cn1cc(Br)c(=O)[nH]c1=O [9d] | 29.2 ± 7.72 | 46.4 ± 9.49 | – | – | 125 ± 8.05 | 50.2 ± 8.87 | 120 ± 4.62 | 114 ± 7.72 | 90% | 12 | – | – | – | –
3 | C/[N+]([O-])=C/Cn1cc(Br)c(=O)n(C/C=[N+](/C)[O-])c1=O [9i] | 23.6 ± 4.17 | 1.12 ± 0.13 | – | – | 110 ± 3.97 | 43.1 ± 6.5 | 121 ± 5.82 | 107 ± 2.72 | inactive and No | 75 | – | – | – | –
4 | CC(C)(C)[N+]([O-])=Cc1ccccc1 [PBN, α-phenyl-N-tert-butylnitrone, reference compound] | – | – | 33.5 µM and ~35 µM | 5.86 ± 0.63 | – | – | – | – | no | 5 | 96.93 ±6.97% and ≈ 96% | 77.51 ±5.75% and ≈ 75% | 5.28 µM and ~5 µM | 93.57±2.94

More lines, main results first:

Row | EC50 ([1]; Homo sapiens) [µM] | EC50 ([3]; Homo sapiens) [µM] | EC50 [1] | EC50 [3] [µM] | SMILES | Emax ([1]; Homo sapiens) [%] | IC50 ([2]; Homo sapiens) [µM] | Emax ([2]; Homo sapiens) [%] | Emax ([3]; Homo sapiens) [%] | OH (%) scavenging [4] | ABTS+ (%) [5] [%] | Maximal Activity mean±SEM (neuroprotection) [1] | Maximal Inhibition Mean±SEM (LDH release) [2] | IC50 [2] | Maximal Activity mean±SEM (antioxidant) [3] [%]
5 | 165 ± 26.1 | 12.9 ± 1.43 | – | – | C/[N+]([O-])=C/Cn1cc(Cl)c(=O)[nH]c1=O [9e] | 99.7 ± 5.98 | 12 ± 1.71 | 98.6 ± 2.24 | 89.3 ± 5.33 | 87% | 19 | – | – | – | –
6 | 1.55 ± 0.15 | 1.4 ± 0.66 | – | – | C/[N+]([O-])=C/Cn1cnc2c(N)ncnc21 [9f] | – | 3.93 ± 0.05 | 129 ± 2.26 | 106 ± 9.39 | 66% | 6 | – | – | – | –
